{"source": "patent US7985745B2", "about": "“Method for pain treatment” (Abbott Laboratories, priority 2006, dated 2011)", "key": {"[1]": {"biological_target": "T1, histamine H4 receptor (Homo sapiens, UniProt Q9H3N8)", "T1 construct": "expressed in transfected cells; host or cells: HEK-293 cells, transient transfection with pCINeo vector; membranes", "T1 sequence (Q9H3N8 whole entry, species assumed)": "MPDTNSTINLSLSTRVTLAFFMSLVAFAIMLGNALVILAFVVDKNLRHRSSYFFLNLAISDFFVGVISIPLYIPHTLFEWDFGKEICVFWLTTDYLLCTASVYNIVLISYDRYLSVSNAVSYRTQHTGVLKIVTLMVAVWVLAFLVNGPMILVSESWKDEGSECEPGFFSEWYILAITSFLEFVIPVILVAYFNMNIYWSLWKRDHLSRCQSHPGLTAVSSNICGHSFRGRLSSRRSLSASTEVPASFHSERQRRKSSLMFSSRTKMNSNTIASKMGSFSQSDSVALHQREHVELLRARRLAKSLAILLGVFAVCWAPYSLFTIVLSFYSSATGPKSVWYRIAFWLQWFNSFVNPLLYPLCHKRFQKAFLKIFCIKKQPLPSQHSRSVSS", "test": "3H-histamine competition binding assay, membranes of transfected HEK-293 cells", "conditions": "displacement of [3H]-histamine, 25° C., 1 h; read-out: Potency in Competition Binding Assay", "method": "In this assay, membranes were prepared from HEK-293 cells transiently transfected with the pCINeo expression vector harboring the histamine H4 receptor by homogenization of the cells on ice in TE buffer (50 mM Tris-HCl buffer, pH 7.4, containing 5 mM EDTA), 1 mM benzamidine, 2 μg/ml aprotinin, 1 μg/ml leupeptin, and 1 μg/ml pepstatin. The homogenate was centrifuged at 40,000 g for 20 minutes at 4° C. This step was repeated, and the resulting pellet was resuspended in TE buffer. Aliquots were frozen at −70° C. until needed. On the day of assay, membranes were thawed and diluted with TE buffer. Competition radioligand binding assays were performed with increasing concentrations of test compound in the presence of [^3H]-histamine incubated at 25° C. for 1 h in a total volume of 0.5 ml of 50 mM Tris, 5 mM EDTA, pH 7.4. All binding reactions were terminated by filtration under vacuum onto polyethylenimine (0.3%) presoaked Unifilters (PerkinElmer Life Sciences) or Whatman GF/B filters (Whatman, Clifton, N.J.) followed by three brief washes with 4 ml of ice-cold TE buffer. Bound radiolabel was determined by liquid scintillation counting. For all of the radioligand competition binding assays, IC50 values and Hill slopes were determined by Hill transformation of the data and Ki values were determined by the Cheng-Prusoff equation."}, "[2]": {"system": "neuropathic pain", "test": "Bennett model: chronic constriction injury of sciatic nerve, mechanical stimulus", "type": "in vivo, rat", "source_text": "To prepare animals for the model, an incision of about 1.5 cm was made about 0.5 cm below the rat pelvis. The biceps femoris and the gluteous superficialis (right side) were separated and the sciatic nerve exposed, isolated, and four loose ligatures (5-0 chromic [NT]) with 1 mm spacing were placed around it. The rats were allowed to recover and then placed in a cage with soft bedding for 10 days before assessment of pain response to mechanical stimulus by the method described above for the Chung model."}, "[3]": {"system": "thermal hyperalgesia", "test": "Complete Freund's adjuvant-induced thermal hyperalgesia", "type": "in vivo, rat", "conditions": "30 minutes before testing, 48 hours after CFA, thermal stimulus", "method": "To assess the effectiveness of representative compounds of the invention against hyperalgesia, animals were tested in an acute model of adjuvant-induced thermal hyperalgesia (see for example, Honore, et al. Behavioural Brain Research 167 (2006) 355-364; Carroll, et al. US Patent application US 2006/0025614A 1). To prepare animals for the model, a solution of Complete Freund's adjuvant (150 microliters of a 50% aqueous solution, Sigma Chemical Company, St. Louis, Mo.) was injected into the plantar surface of test paw of the animal (rat). Rats so injected develop a hyperalgesia to thermal stimulation which is assessed 48 hours after injection of the Complete Freund's adjuvant using a commercially available paw thermal stimulator (UARDG, Dept. of Anesthesiology, Univ. California at San Diego, La Jolla, Calif.). For testing, rats were placed individually in a so-called ‘hot box’ (i.e. Plexiglass cubicles mounted on a glass surface) maintained at 30° C., and allowed a 30 minute habituation period. A thermal stimulus, in the form of radiant heat emitted from a focused projection bulb, was then applied to the plantar surface of each hind paw. The stimulus current was maintained (e.g. at 4.5 Amp) and the time of exposure set to limit the extent of possible tissue damage (e.g. maximum of 20 seconds exposure to thermal heating from the projection bulb). The time (in seconds) for the withdrawal of the paw that was injected with the Complete Freund's adjuvant (CFA) and subjected to the thermal stimulus was recorded, and this was compared to the time (in seconds) for withdrawal of the uninjected paw subjected to the same thermal stimulus. […] To test the effect of a compound on the hyperalgesia, the test compound is dissolved in a vehicle (e.g. water or saline) and administered by i.p. (intraperitoneal) injection 30 minutes before the testing of the animal's response to the thermal stimulus to the paws. The antihyperalgesic activity of the compound in blocking the pain is shown by an increase in the time to withdraw the CFA-injected paw subjected to thermal stimulus. Experiments are done with single-dose and escalating-dosages of the test compound, and dose response curves constructed to determine ED50 values."}, "[4]": {"biological_target": "T1, histamine H4 receptor", "test": "FLIPR Ca2+ assay in HEK-293 cells stably expressing histamine H4 receptor and Gαqi5", "type": "cell-based", "conditions": "Kb for antagonists and inverse agonists, EC50 for partial agonists; block of histamine-induced Ca2+ increase", "source_text": "Histamine H4 receptors from mammalian species have been cloned. Methods to clone, express, and assess the potency and functional activity of such cloned genes are well known to those skilled in the art of molecular biology. […] Before testing, cells are loaded with a Ca^+2 sensitive fluorescent dye, in this case Fluo-4. In the case of partial agonist or agonist ligands, addition of compound to the cells leads to the increase in intracellular Ca^+2 which is detected by FLIPR (Fluorescence Imaging Plate Reader; Molecular Devices, Sunnyvale, Calif.) technology. […] The fluorescence intensities measured before addition of the test compound are subtracted from the fluorescence intensities at later time points. Peak response values determined at each concentration of ligand are expressed as a percentage of the response obtained with the full agonist histamine. Concentration versus response data are analyzed to obtain compound potency as Kb values for antagonists and inverse agonists and as EC50 values for partial agonists."}}, "data": [{"smiles": "CN1CCN(c2cc(-c3ccc(C#N)cc3)nc(N)n2)CC1.O=C(O)/C=C\\C(=O)O", "note": "[Example 1, 4-(2-Amino-6-(4-methylpiperazin-1-yl)pyrimidin-4-yl)benzonitrile, maleate]", "values": [{"measurement": "Ki", "setting": "[1]", "result": 35, "unit": "nM"}, {"measurement": "MPE", "setting": "[2]; 100 micromole/kg i.p.", "result": 18, "unit": "%"}, {"measurement": "MPE", "setting": "[2]; 300 micromole/kg i.p.", "result": 63, "unit": "%"}, {"measurement": "MPE", "setting": "[3]; 30 micromole/kg i.p.", "result": 62, "unit": "%"}, {"measurement": "MPE", "setting": "[3]; 100 micromole/kg i.p.", "result": 88, "unit": "%"}, {"measurement": "Potency in the FLIPR assay", "setting": "[4]", "result": 58, "unit": "nM"}]}, {"smiles": "CN1CCN(C(=O)c2cc3cc(Cl)ccc3[nH]2)CC1", "note": "[Example 3, reference compound]", "values": [{"measurement": "MPE", "setting": "[2]; 250 micromole/kg i.p.", "result": 32, "unit": "%"}, {"measurement": "MPE", "setting": "[2]; 500 micromole/kg i.p.", "result": 73, "unit": "%"}, {"measurement": "MPE", "setting": "[3]; 30 micromole/kg i.p.", "result": 27, "unit": "%"}, {"measurement": "MPE", "setting": "[3]; 300 micromole/kg i.p.", "result": 81, "unit": "%"}]}, {"smiles": "CNC1CN(c2nc(N)nc3c2CCCc2ccccc2-3)C1", "note": "[Example 6, 4-(3-Methylamino-azetidin-1-yl)-6,7-dihydro-5H-benzo[6,7]cyclohepta[1,2-d]pyrimidin-2-ylamine]", "values": [{"measurement": "Ki", "setting": "[1]", "result": 11, "unit": "nM"}, {"measurement": "Potency in the FLIPR assay", "setting": "[4]", "result": 9, "unit": "nM"}]}]}
